Literature values as cited in US6420379B1, “Alkynyl-substituted camptothecins and process for their preparation” (Pharmacia & Upjohn S.p.A., priority 1997, dated 2002).

How the values were obtained:
human albumin = human albumin (Homo sapiens, UniProt P02768); conditions: presence of biologically relevant levels of human albumin
[1] = 2 hours after drug addition to human plasma

Sequence of human albumin (P02768 25-609): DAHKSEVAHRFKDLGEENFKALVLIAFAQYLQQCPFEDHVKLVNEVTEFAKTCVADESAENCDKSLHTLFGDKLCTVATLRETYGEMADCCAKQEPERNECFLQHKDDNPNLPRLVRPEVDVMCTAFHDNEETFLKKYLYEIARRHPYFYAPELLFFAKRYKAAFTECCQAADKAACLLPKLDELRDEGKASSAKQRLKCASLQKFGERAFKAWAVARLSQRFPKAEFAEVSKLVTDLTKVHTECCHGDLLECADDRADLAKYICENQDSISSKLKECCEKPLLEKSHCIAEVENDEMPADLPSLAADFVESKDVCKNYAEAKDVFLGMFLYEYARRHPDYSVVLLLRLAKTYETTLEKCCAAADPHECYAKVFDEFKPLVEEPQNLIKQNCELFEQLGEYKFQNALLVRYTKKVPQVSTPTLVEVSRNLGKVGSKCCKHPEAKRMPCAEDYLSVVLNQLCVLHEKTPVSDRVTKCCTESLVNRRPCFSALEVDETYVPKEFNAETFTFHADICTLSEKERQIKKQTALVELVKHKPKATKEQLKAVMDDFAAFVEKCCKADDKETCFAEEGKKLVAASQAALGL

For CC[C@@]1(O)C(=O)OCc2c1cc1n(c2=O)Cc2cc3ccccc3nc2-1 [camptothecin], the “half-life of the biologically active form” value (human albumin) is listed as “about 12 min” and the “percentage of the drug converted to camptothecin carboxylate” value [1] is listed as “greater than 99%”.
